In US20240327460A1, “NORA INHIBITORS AND METHODS OF USE” (priority 2021, published 2024):

What was measured:
NorA = molecular target: T1, NorA (Staphylococcus aureus, UniProt Q5HHX4); assay: FP competition binding experiment with norfloxacin; parameters: species or system S. aureus; details: NorA 50 nM, FITC-NPI-1 15 nM, norfloxacin 10 nM and 2 mM
T1 construct: made in house; host or cells: C43 (DE3) E. coli
Description: FP competition binding experiments with norfloxacin were performed using FITC-NPI-1 as described above. These experiments used a fixed concentration of NorA in PMAL-C8 amphipol at 50 nM and FITC-NPI-1 at 15 nM with norfloxacin concentrations of 10 nM and 2 mM in 100 μL solutions of 20 mM Tris pH 7.5, 100 mM NaCl, 10% glycerol, 0.1% pluronic acid, and 1.2% DMSO. A control experiment was performed in the same manner but in the absence of NorA. Four independent trials of FP experiments were performed, each in triplicate.

MRSA^ΔnorA = assay: Norfloxacin MIC assays in MRSA (MIC test strips); assay type: cell-based, Staphylococcus aureus; details: MRSA^ΔnorA expressing wild-type NorA relative to MRSA^ΔnorA alone
Description: Wild-type USA300 strain JE2 (“MRSA”) (Fey et al., “A Genetic Resource for Rapid and Comprehensive Phenotype Screening of Nonessential Staphylococcus aureus Genes,” Mbio 4:e00537-00512 (2013), which is hereby incorporated by reference in its entirety) and isogenic strains, norA::bursa (MRSA^ΔnorA) containing empty vector, or hemin-inducible NorA variants were grown overnight at 37° C. in TSB media supplemented with 10 μg/ml chloramphenicol and 1 μM hemin. The cultures were diluted to approximately 1×10^8 CFU/ml and evenly spread on TSA plates supplemented with 5 μg/ml chloramphenicol and 1 μM hemin. The norfloxacin MIC test strips (Liofilchem) were placed in the center of the plate and the plates were incubated for 24 hr at 37° C. The MIC values were read at the intersection of the inhibition eclipse and the strip. At least two independent MIC experiments were acquired for each sample; reported errors reflect the standard deviation among independent experiments.

MRSA and MRSA^ΔnorA = assay: Bacteriostatic/bactericidal effect of norfloxacin on MRSA (CFU); assay type: cell-based, Staphylococcus aureus; details: norfloxacin 0, 12.5 or 25 μg/ml; 1, 2, 4 hr
Description: MRSA or MRSA^ΔnorA were cultured overnight in 5 ml TSB and diluted 1:1,000 with TSB the next morning. In a round-bottom 96-well plate, 50 μl of the diluted culture was mixed with 50 μl of TSB supplemented with norfloxacin. The final concentration of MRSA or MRSA^ΔnorA was ˜1×10^6 CFU/ml and norfloxacin was 0, 12.5, or 25 μg/ml. The plate was incubated while shaking at 37° C. At 0 hr and after 1, 2, or 4 hr of incubation, CFUs of MRSA or MRSA^ΔnorA were enumerated by serially diluting in PBS and spot plating on TSA plates.

T1 sequence (Q5HHX4 whole entry): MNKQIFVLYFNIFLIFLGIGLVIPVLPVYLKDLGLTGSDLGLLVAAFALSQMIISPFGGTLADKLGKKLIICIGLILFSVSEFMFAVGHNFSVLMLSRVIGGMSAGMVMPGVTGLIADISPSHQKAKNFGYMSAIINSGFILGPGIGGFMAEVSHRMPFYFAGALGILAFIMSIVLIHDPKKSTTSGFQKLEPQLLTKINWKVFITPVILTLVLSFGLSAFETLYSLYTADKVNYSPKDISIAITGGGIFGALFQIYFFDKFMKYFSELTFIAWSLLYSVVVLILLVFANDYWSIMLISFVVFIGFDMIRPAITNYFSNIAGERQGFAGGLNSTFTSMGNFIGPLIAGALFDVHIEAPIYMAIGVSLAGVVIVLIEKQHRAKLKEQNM

SMILES: CCn1cc(C(=O)O)c(=O)c2cc(F)c(N3CCNCC3)cc21 [norfloxacin]
- competition with NPI-1 binding to NorA (NorA): compete with NPI-1 binding to NorA
- greater norfloxacin MIC (MRSA^ΔnorA): 20 fold
- effect on the growth of MRSA and MRSA^ΔnorA (MRSA and MRSA^ΔnorA): bacteriostatic effect
